# Results taken from patent publication US20230027066A1 (Urovant Sciences GmbH, priority 2019, published 2023).
# Test system: men and women with overactive bladder
# Experiment: Phase 3 study of vibegron 75 mg vs placebo and tolterodine ER 4 mg, 12 weeks, efficacy (voiding and urine volume diary)
# Assay type: in vivo, human
# Conditions: for Daily Urgency Episodes: Vibegron - Placebo LS Means Difference: 75 mg; for Daily Urgency Episodes: Reduction from Baseline at Week 12, LS Mean: vibegron 75 mg, tolterodine ER 4 mg; for Patients with 100% Reduction in UUI from Baseline to Week 12, Unadjusted n (%) / Patients with at Least 75% Reduction in UUI from Baseline to Week 12, Unadjusted n (%) / Patients with 100% Reduction in UUI from Baseline to Week 12, Adjusted n (%) / Patients with at Least 75% Reduction in UUI from Baseline to Week 12, Adjusted n (%): FAS-I; for Patients with 100% Reduction in UUI from Baseline to Week 12, Adjusted n (%) / Patients with at Least 75% Reduction in UUI from Baseline to Week 12, Adjusted n (%): MI for missing values; for 75% UUI responders, Active-Placebo CMH Difference / 100% UUI responders, Active-Placebo CMH Difference: stratified by sex; for Urgency, Change from Baseline LS Mean / Urgency, LS Mean Difference active - Placebo: baseline to Week 12
# Description: Enrollment of patients included individuals with OAB Wet (those with UUI, the involuntary loss of urine accompanied by urgency) and OAB Dry (those without UUI). A total of 1,518 patients were randomized across 215 study sites into one of three groups for a 12-week treatment period.
# The study consisted of a Screening Period (1 to 5 weeks), a single-blind Run-in Period (2 weeks), a randomized double-blind Treatment Period (12 weeks), and a Follow-up Period (4 weeks).
# Tolterodine ER 4 mg was the active control. […] Between the Baseline and Week 12 Visits, patients had study assessments at Week 4 and Week 8.
# The Patient Voiding Diary was used by participants (via the eDiary or paper Diary) to record the frequency of daily OAB symptoms including all micturitions, urgency, incontinence, and main reason for incontinence by selecting the respective box for each symptom occurring during the course of a given day and night.
# Urine volume data were collected separately by patients using the Urine Volume component of the eDiary, or the paper Urine Volume Chart. The Urine Volume Chart is a tool used in clinical practice and clinical investigation to assess voiding functions over a 24-hour period and is regarded as a useful instrument in the investigation of patients with voiding symptoms. Urine volume may be collected during any one (1) of the 7 Diary Days prior to the visit, and it should be recorded for ˜24 hours starting from the time the patient gets up for the day and continues until the time the patient gets up for the day on the next day.
# For the purpose of this study, the number of micturitions was defined as the number of times a patient has voided in the toilet as indicated on the Patient Voiding Diary. Average daily micturitions were calculated using the daily entries in the Patient Voiding Diary, which was completed over the 7 days prior to each study visit. Average daily number of micturitions were calculated as the total number of micturitions that occurred on a Complete Diary Day divided by the number of Complete Diary Days in the Patient Voiding Diary. A complete diary day required confirmation by the patient in the Patient Voiding Diary that all voids and leakages had been recorded for the diary day. Baseline was defined as the average number of micturitions occurring during the last evaluable diary prior to the Baseline Visit.
# The number of UUI episodes was defined as the number of times a patient had checked “urge” as the reason for accidental urine leakage. Average daily UUI episodes at each study visit were calculated in the same manner as described above for the micturition endpoint. The UUI endpoint were analyzed using only OAB Wet patients.
# For the analysis of the co-primary endpoints (change from baseline in average number of daily micturitions at Week 12 and change from baseline in average number of daily urge urinary incontinence episodes at Week 12, and placebo adjustment of each), a mixed model for repeated measure (MMRM) with restricted maximum likelihood estimation was used. This model corrects for dropout and accounts for the fact that measurements taken on the same patient over time tend to be correlated by using all available information on patients within the same covariate set to derive an estimate of the treatment effect for a dropout-free population. The analysis model for each efficacy endpoint includes terms for treatment, visit, OAB Type (Wet vs Dry), Sex (Female vs Male), Region (US vs Rest of World), baseline score, and interaction of visit by treatment.
# Primary inferences were drawn from treatment differences for the changes from baseline derived from the MMRM models at Week 12. As part of secondary objectives, the treatment differences for each post baseline visit were also derived using the same MMRM model. […]
# [1] = 50% Total Incontinence Responders, Week 2
# [2] = 50% Total Incontinence Responders, Week 4
# [3] = 50% Total Incontinence Responders, Week 8
# [4] = 50% Total Incontinence Responders, Week 12
# [5] = Dry population, baseline to Week 2
compound,measurement,setting,value
"O=C(Nc1ccc(C[C@@H]2CC[C@H]([C@H](O)c3ccccc3)N2)cc1)[C@@H]1CCc2nccc(=O)n21 [Vibegron, (6S)-N-[4-[[(2S,5R)−5-[(R)-hydroxy(phenyl)methyl]pyrrolidin−2-yl]methyl]phenyl]−4-oxo−7,8-dihydro−6H-pyrrolo[1,2-a]pyrimidine−6-carboxamide]","Average Volume Voided per Micturition, Mean (SD)",[1],173.8 (76.89)
same,"Average daily number of urgency episodes, Mean (SD)",[1],5.62 (3.792)
same,"Change from Baseline in Average Daily Number of Urgency Episodes, LS Mean (SE)",[1],−2.1 (0.15)
same,"Change from Baseline in Average Volume Voided per Micturition, LS Mean",[1],16.1 (3.79)
same,"Change from baseline in Percent Dry Diary Days, LS Mean",[1],29.0 (2.11) Percent
same,"Percent Dry Diary Days, Mean (SD)",[1],34.64 (36.322) Percent
same,"Average Volume Voided per Micturition, Mean (SD)",[2],176.5 (81.31)
same,"Average daily number of urgency episodes, Mean (SD)",[2],5.01 (3.889)
same,"Change from Baseline in Average Daily Number of Urgency Episodes, LS Mean (SE)",[2],−2.6 (0.16)
same,"Change from Baseline in Average Volume Voided per Micturition, LS Mean",[2],18.0 (3.99)
same,"Change from baseline in Percent Dry Diary Days, LS Mean",[2],37.8 (2.41) Percent
same,"Percent Dry Diary Days, Mean (SD)",[2],43.31 (41.468) Percent
same,"Average Volume Voided per Micturition, Mean (SD)",[3],182.0 (84.53)
same,"Average daily number of urgency episodes, Mean (SD)",[3],4.25 (3.833)
same,"Change from Baseline in Average Daily Number of Urgency Episodes, LS Mean (SE)",[3],−3.4 (0.19)
same,"Change from Baseline in Average Volume Voided per Micturition, LS Mean",[3],24.2 (4.12)
same,"Change from baseline in Percent Dry Diary Days, LS Mean",[3],47.4 (2.45) Percent
same,"Percent Dry Diary Days, Mean (SD)",[3],53.01 (39.898) Percent
same,"Average Volume Voided per Micturition, Mean (SD)",[4],(186.2 (84.24)
same,"Average daily number of urgency episodes, Mean (SD)",[4],3.67 (3.481)
same,"Change from Baseline in Average Daily Number of Urgency Episodes, LS Mean (SE)",[4],−4.0 (0.20)
same,"Change from Baseline in Average Volume Voided per Micturition, LS Mean",[4],27.6 (4.24)
same,"Change from baseline in Percent Dry Diary Days, LS Mean",[4],55.5 (2.37) Percent
same,"Percent Dry Diary Days, Mean (SD)",[4],61.0 (37.857) Percent
same,"Average Volume Voided per Micturition, Mean (SD)","75% UUI Responders, Week 2",174.3 (77.29)
same,"Average daily number of urgency episodes, Mean (SD)","75% UUI Responders, Week 2",5.40 (3.762)
same,"Change from Baseline in Average Volume Voided per Micturition, LS Mean","75% UUI Responders, Week 2",17.7 (4.28)
same,"Change from baseline in average daily number of urgency episodes, LS Mean","75% UUI Responders, Week 2",−2.2 (0.17)
same,"Average Volume Voided per Micturition, Mean (SD)","75% UUI Responders, Week 4",178.1 (82.51)
same,"Average daily number of urgency episodes, Mean (SD)","75% UUI Responders, Week 4",4.72 (3.838)
same,"Change from Baseline in Average Volume Voided per Micturition, LS Mean","75% UUI Responders, Week 4",20.7 (4.52)
same,"Change from baseline in average daily number of urgency episodes, LS Mean","75% UUI Responders, Week 4",−2.7 (0.19)
same,"Average Volume Voided per Micturition, Mean (SD)","75% UUI Responders, Week 8",184.2 (87.70)
same,"Average daily number of urgency episodes, Mean (SD)","75% UUI Responders, Week 8",3.95 (3.742)
same,"Change from Baseline in Average Volume Voided per Micturition, LS Mean","75% UUI Responders, Week 8",27.2 (4.67)
same,"Change from baseline in average daily number of urgency episodes, LS Mean","75% UUI Responders, Week 8",−3.5 (0.21)
same,"Average Volume Voided per Micturition, Mean (SD)","75% UUI Responders, Week 12",185.0 (87.89)
same,"Average daily number of urgency episodes, Mean (SD)","75% UUI Responders, Week 12",3.31 (3.433)
same,"Change from Baseline in Average Volume Voided per Micturition, LS Mean","75% UUI Responders, Week 12",26.9 (4.87)
same,"Change from baseline in average daily number of urgency episodes, LS Mean","75% UUI Responders, Week 12",−4.2 (0.23)
same,Daily Urgency Episodes: Vibegron - Placebo LS Means Difference,"Age ≥65 years, Week 12",−1.0
same,"Daily Urgency Episodes: Reduction from Baseline at Week 12, LS Mean",Age ≥65 years,−2.7
same,Daily Urgency Episodes: Vibegron - Placebo LS Means Difference,"Age ≥75 years, Week 12",−1.7
same,"Daily Urgency Episodes: Reduction from Baseline at Week 12, LS Mean",Age ≥75 years,−2.6
same,Daily Urgency Episodes: Vibegron - Placebo LS Means Difference,"All patients, Week 12",−0.7
same,"Daily Urgency Episodes: Reduction from Baseline at Week 12, LS Mean",All patients,−2.7
same,"Patients with 100% Reduction in UUI from Baseline to Week 12, Unadjusted n (%)",Baseline Number of UUI <3,79 (35.4) n (%)
same,"Patients with at Least 75% Reduction in UUI from Baseline to Week 12, Unadjusted n (%)",Baseline Number of UUI <3,112 (50.2) n (%)
same,"Patients with 100% Reduction in UUI from Baseline to Week 12, Adjusted n (%)",Baseline Number of UUI <3,68 (30.4) n (%)
same,"Patients with at Least 75% Reduction in UUI from Baseline to Week 12, Adjusted n (%)",Baseline Number of UUI <3,101 (45.5) n (%)
same,"75% UUI responders, Active-Placebo CMH Difference",Baseline Number of UUI <3,7.1
same,"100% UUI responders, Active-Placebo CMH Difference",Baseline Number of UUI <3,2.8
same,"Patients with 100% Reduction in UUI from Baseline to Week 12, Unadjusted n (%)",Baseline Number of UUI ≥3,37 (20.6) n (%)
same,"Patients with at Least 75% Reduction in UUI from Baseline to Week 12, Unadjusted n (%)",Baseline Number of UUI ≥3,99 (55.0) n (%)
same,"Patients with 100% Reduction in UUI from Baseline to Week 12, Adjusted n (%)",Baseline Number of UUI ≥3,34 (19.1) n (%)
same,"Patients with at Least 75% Reduction in UUI from Baseline to Week 12, Adjusted n (%)",Baseline Number of UUI ≥3,98 (54.4) n (%)
same,"75% UUI responders, Active-Placebo CMH Difference",Baseline Number of UUI ≥3,29.4
same,"100% UUI responders, Active-Placebo CMH Difference",Baseline Number of UUI ≥3,12.3
same,"Urgency, Change from Baseline LS Mean","Dry population, Age <65",−2.9 (64)
same,"Urgency, LS Mean Difference active - Placebo","Dry population, Age <65",−1.4
same,"Urgency, Change from Baseline LS Mean","Dry population, Age ≥65",−2.2 (45)
same,"Urgency, LS Mean Difference active - Placebo","Dry population, Age ≥65",−0.5
same,"Average daily number of urgency episodes, Mean (SD)","Dry population, Week 2",6.98 (4.732)
same,"Change from baseline in average daily number of urgency episodes, LS Mean","Dry population, Week 2",−1.5 (0.24)
same,"Urgency episodes, Active - Placebo LS Mean Difference","Dry population, Week 2",−0.8 (0.35)
same,"Average daily number of urgency episodes, Mean (SD)","Dry population, Week 4",6.80 (4.667)
same,"Change from baseline in average daily number of urgency episodes, LS Mean","Dry population, Week 4",−1.8 (0.26)
same,"Urgency episodes, Active - Placebo LS Mean Difference","Dry population, Week 4",−0.9 (0.37)
same,"Average daily number of urgency episodes, Mean (SD)","Dry population, Week 8",6.39 (4.627)
same,"Change from baseline in average daily number of urgency episodes, LS Mean","Dry population, Week 8",−2.2 (0.30)
same,"Urgency episodes, Active - Placebo LS Mean Difference","Dry population, Week 8",−1.0 (0.44)
same,"Average daily number of urgency episodes, Mean (SD)","Dry population, Week 12",6.17 (4.958)
same,"Change from baseline in average daily number of urgency episodes, LS Mean","Dry population, Week 12",−2.6 (0.33)
same,"Urgency episodes, Active - Placebo LS Mean Difference","Dry population, Week 12",−1.0 (0.47)
same,"Patients with at Least 50% Reduction in Urgency Episodes, Adjusted (%)",[5],18.1%
same,"Patients with at Least 50% Reduction in Urgency Episodes, Adjusted n",[5],22
same,"Patients with at Least 50% Reduction in Urgency Episodes, Unadjusted (%)",[5],18.7%
same,"Patients with at Least 50% Reduction in Urgency Episodes, Unadjusted n",[5],23
same,"Urgency 50% responders, Active - Placebo CMH Difference",[5],4.7
same,"Patients with at Least 50% Reduction in Urgency Episodes, Adjusted (%)","Dry population, baseline to Week 4",22.4%
